Results: patent US20250161254A1, “USE OF RETINOIDS FOR TREATMENT OF ATRIAL FIBRILLATION” (NEW YORK UNIVERSITY, priority 2022, published 2025)
“Also recorded” adds a separate entry of the source.

Experiments:
[1] = test system: TAC banded mice; test: LA fibrosis burden in ATRA reversal study (delayed ATRA initiation); conditions: delayed treatment with ATRA, TAC banding
[2] = test system: TAC banded mice; test: ECG in ATRA reversal study (delayed ATRA initiation); format: in vivo; conditions: TAC+dATRA vs TAC+dV
[3] = test system: TAC banded hearts; test: Optical mapping of Langendorff-perfused hearts; format: ex vivo, mice; conditions: Sham+V, TAC+V and TAC+ATRA hearts compared
Description: Optical mapping of Langendorff-perfused hearts from Sham+V, TAC+V, and TAC+ATRA hearts. (FIG. 6A) Representative left atrial activation maps at 37° C. Hearts were paced at 100 ms basic cycle length (BCL) from the right atria. (FIG. 6B) Calculated LA conduction velocity (CV). (FIG. 6C) Calculated left ventricular CV (FIG. 6D) ECG tracing of sustained atrial arrythmia in TAC+V heart after atrial burst pacing protocol.^6 (FIG. 6E) Left atrial activation map of sustained atrial arrythmia shown in panel (FIG. 6D). Isochrones are drawn 1 ms apart. Data represent mean+S.E.M. n=4-5 per group. One-way ANOVA was used followed by Tukey's test for multiple comparisons to compare differences between experimental groups. * p-value<0.05, ** p-value<0.005, *** p-value<0.001, **** p-value<0.0001

[4] = test system: chick embryos; conditions: excess ATRA; cited from earlier work
[5] = test system: dissociated neonatal rat cardiac fibroblasts; conditions: fibroblasts exposed to AngII; cited from earlier work
[6] = test system: guinea pig HF model; conditions: cited from earlier work
[7] = test system: TAC banded hearts; test: Atrial arrhythmia inducibility by atrial burst pacing; format: in vivo, mice; conditions: TAC+ATRA hearts
[8] = test system: TAC banded mice; test: ECG dose-response of ATRA in TAC banded mice; format: in vivo
[9] = test system: TAC banded mice; test: Left atrial fibrosis burden, ImageJ analysis on Masson's trichrome stained sections; format: in vivo; conditions: for collagen volume fraction in LA: 10 mg/kg/day IP, two weeks
From the text: (§1) TAC banding creates a fixed afterload obstruction in the systemic circulation and serves as an excellent model for drug testing as the surgically-induced coarctation cannot be reversed by medical therapy.

[10] = test system: trans-aortic constriction (TAC) banded mice; test: Electrocardiogram in TAC banded mice, ATRA protection study; format: in vivo; conditions: two weeks
From the text: as §1
On ECG, the P wave duration is a measure of atrial activation time, the PR interval is a measure of atrial-to-ventricular activation time that includes the atrio-ventricular nodal conduction time, the QRS duration is a measure of ventricular activation time, and the HR-corrected QT (QTc) interval is a measure of ventricular repolarization time. […] In TAC banded mice treated with vehicle control (TAC+V), the heart rate (HR) was increased, the P wave, QRS wave, and QTc interval durations were prolonged, and the PR interval was shortened compared to Sham groups.

[11] = test system: TLR/NF-KB signaling; conditions: diabetic kidney; cited from earlier work
[12] = test system: Mice deficient in ALDH1A2; conditions: maternal supplementation with oral ATRA; cited from earlier work
[13] = test system: trans-aortic constriction (TAC) banded mice; test: Transthoracic echocardiography in TAC banded mice, ATRA protection study; format: in vivo
Description: as §1
The effect of TAC banding on left atrial function was measured next by using reservoir strain analysis. 8,30 Left atrial reservoir strain analysis is a sensitive modality to study left atrial mechanics of both relaxation (conduit strain) and contraction (contractile strain) in an angle-independent fashion.

[14] = test system: LA samples from TAC banded hearts; test: RNA-seq on LA samples from TAC+V and TAC+ATRA hearts; format: in vivo, mice
From the text: Activation of the AngII signaling pathway in the LA from pressure overload is a powerful inducer of inflammation, fibrosis, and Cx43 gap junction remodeling. Blockade of AngII signaling can reduce atrial fibrosis and partially rescued Cx43 remodeling. ^38,39

[15] = test system: ALDHIA1 and ALDH1A2; conditions: in vivo; cited from earlier work
[16] = test system: CYP26; conditions: rodents; cited from earlier work
[17] = TAC+ATRA vs TAC+V over the dose range
[18] = TAC+ATRA vs TAC+V, ATRA 10 mg/kg/day IP
[19] = TAC+ATRA vs TAC+V, 10 mg/kg/day IP, two weeks, 10 mg/kg/day
[20] = GO / REACTOME analysis of normalized genes
[21] = TAC+ATRA versus TAC+V LA, P<0.05

## CC1=C(/C=C/C(C)=C/C=C/C(C)=C/C(=O)O)C(C)(C)CCC1 [ATRA, all-trans retinoic acid]
[1]
  interstitial and perivascular fibrosis: reverses
[2]; 10 mg/kg/day IP started two weeks post-TAC, for two weeks, 10 mg/kg/day
  P wave duration: significantly reduces
[2]; delayed treatment
  PR interval: not significantly different; also recorded: unchanged
  QRS duration: not significantly different; also recorded: unchanged
  QTc interval: not significantly different; also recorded: unchanged
  heart rate (HR): unchanged
[3]
  left ventricular CV: not significantly different
[4]
  atrial size: developed enlarged atria
[5]
  TGF-β production: reduces
  collagen secretion: reduces
  proliferation: reduces
[6]
  left ventricular systolic function: improve
  ventricular fibrosis: reduce
[7]
  hearts with sustained atrial arrhythmia (lasting >30 sec) after atrial burst pacing: 0 out of 3
[8]; 20 mg/kg dose compared with 10
  P wave duration shortening: no further shortening
[8]; 2, 5, 10, 20 mg/kg daily IP, two weeks
  reduction of P wave prolongation, dose dependence: dose-dependent fashion
[8]; ATRA 20 mg/kg daily IP
  ventricular ectopy (potential cardiotoxicity): increased ventricular ectopy
[8]; [17]
  PR interval: no significant dose-dependent effect; also recorded: not significantly changed
  QRS duration: no significant dose-dependent effect; also recorded: not significantly changed
  heart rate: no significant dose-dependent effect; also recorded: not significantly changed
[8]; daily IP, two weeks
  ATRA dose of maximal P wave duration shortening: 10 m/kg
[9]; Sham+ATRA
  collagen volume fraction in LA: 5.3±0.1%
[9]; TAC+ATRA vs TAC+V
  left atrial interstitial and perivascular fibrosis: reduced; also recorded: limits
[9]; TAC+ATRA
  collagen volume fraction in LA: 8.3±0.6%
[10]; Sham+ATRA vs Sham+V, normal pressure conditions, 10 mg/kg/day IP
  ECG measurements: no differences
[10]; [18]
  HR-corrected QT (QTc) interval: prolonged equally; also recorded: unchanged
  P wave duration: prevents P wave prolongation; also recorded: reduced to normal levels
  PR interval: does not significantly alter; also recorded: unchanged
  QRS duration: prolonged equally; also recorded: unchanged
  heart rate (HR): unchanged
[11]
  production of inflammatory cytokines, chemokines, adhesion molecules and growth factors: block cytokine, chemokine, and growth factor production; also recorded: blocks production
[12]
  atrial defects: rescue the atrial defects
[13]; Sham+ATRA vs Sham+V, normal pressure conditions
  echocardiographic measurements of the LA and LV: no differences
[13]; [19]
  LV fractional shortening (FS): equally reduced
  LV longitudinal strain: equally reduced
  left atrial mechanics (reservoir strain): significant improvement; also recorded: significantly improved
  left ventricular hypertrophy (LV wall thickness): increased in both TAC+V and TAC+ATRA cohorts
[14]; [20]
  pathways of ECM production, pro-inflammatory signaling and vasoconstriction: significantly downregulated
  pathways of mitochondrial energy production and cardiac/atrial development: significantly upregulated
[14]; TAC banded hearts
  left atrial Scn5a expression: increases
[14]; [21]
  differentially expressed transcripts: 4133 transcripts
  transcripts downregulated: 2058 transcripts
  transcripts upregulated: 2075 transcripts
[14]; [TAC+ATRA vs TAC+V] dataset
  DEGs moving in reciprocal direction to the [TAC vs Sham] dataset (normalization): 1987 DEGs
[14]; pressure overloaded LA
  expression of PDGF-A and PDGF-B: reduced expression
  expression of TLR2, NF-KB signaling components, NLRP3 and IL-1b: downregulated
  expression of angiotensin converting enzyme (ACE): significantly downregulated

## O=C(NCCCCCCCCNC(=O)C(Cl)Cl)C(Cl)Cl [WIN18446]
[15]
  ATRA biosynthesis: efficiently block ATRA biosynthesis

## CCC(CC)C(c1ccc(Nc2nc3ccccc3s2)cc1)n1cncn1 (stereo not shown) [talarozole]
[16]
  ATRA levels: effectively increase ATRA levels
